13 compounds from the Kinase Knowledgebase extract (Sharma et al. 2016) can be followed below.

Targets include PIK3CG (human) (UniProt P48736); PIK3CB (Human) (UniProt P42338); PIK3CD (Human) (UniProt O00329).
Holding throughout (assay): Enzyme Assay

PIK3CB (Human), sequence (P42338 whole entry, looked up): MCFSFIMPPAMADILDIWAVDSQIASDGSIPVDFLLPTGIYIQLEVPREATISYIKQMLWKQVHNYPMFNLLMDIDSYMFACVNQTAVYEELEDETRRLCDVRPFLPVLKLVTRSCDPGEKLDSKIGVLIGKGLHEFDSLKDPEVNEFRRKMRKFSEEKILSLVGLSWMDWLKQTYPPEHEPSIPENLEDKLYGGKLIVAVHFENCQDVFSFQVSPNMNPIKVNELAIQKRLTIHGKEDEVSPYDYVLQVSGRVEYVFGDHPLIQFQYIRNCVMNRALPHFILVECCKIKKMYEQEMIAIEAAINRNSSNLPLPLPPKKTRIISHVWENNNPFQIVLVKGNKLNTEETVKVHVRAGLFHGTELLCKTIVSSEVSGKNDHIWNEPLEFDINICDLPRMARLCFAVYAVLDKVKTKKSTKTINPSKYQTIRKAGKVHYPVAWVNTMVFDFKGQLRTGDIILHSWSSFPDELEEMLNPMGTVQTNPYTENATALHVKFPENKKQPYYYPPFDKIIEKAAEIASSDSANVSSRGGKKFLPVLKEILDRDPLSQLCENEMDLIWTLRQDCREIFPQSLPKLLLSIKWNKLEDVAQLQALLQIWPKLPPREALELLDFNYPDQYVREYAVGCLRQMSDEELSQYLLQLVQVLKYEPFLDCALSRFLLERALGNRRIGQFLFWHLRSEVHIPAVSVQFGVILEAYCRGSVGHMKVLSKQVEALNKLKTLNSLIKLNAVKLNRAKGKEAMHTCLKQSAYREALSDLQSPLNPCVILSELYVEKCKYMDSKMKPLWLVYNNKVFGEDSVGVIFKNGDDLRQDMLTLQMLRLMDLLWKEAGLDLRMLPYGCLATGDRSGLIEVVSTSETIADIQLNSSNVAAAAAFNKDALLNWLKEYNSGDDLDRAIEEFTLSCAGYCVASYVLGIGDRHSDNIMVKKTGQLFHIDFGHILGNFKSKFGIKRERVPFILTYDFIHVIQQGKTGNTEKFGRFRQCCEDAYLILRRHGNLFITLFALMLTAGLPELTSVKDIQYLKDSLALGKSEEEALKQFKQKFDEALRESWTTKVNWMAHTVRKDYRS
PIK3CG (human), sequence (P48736 whole entry, looked up): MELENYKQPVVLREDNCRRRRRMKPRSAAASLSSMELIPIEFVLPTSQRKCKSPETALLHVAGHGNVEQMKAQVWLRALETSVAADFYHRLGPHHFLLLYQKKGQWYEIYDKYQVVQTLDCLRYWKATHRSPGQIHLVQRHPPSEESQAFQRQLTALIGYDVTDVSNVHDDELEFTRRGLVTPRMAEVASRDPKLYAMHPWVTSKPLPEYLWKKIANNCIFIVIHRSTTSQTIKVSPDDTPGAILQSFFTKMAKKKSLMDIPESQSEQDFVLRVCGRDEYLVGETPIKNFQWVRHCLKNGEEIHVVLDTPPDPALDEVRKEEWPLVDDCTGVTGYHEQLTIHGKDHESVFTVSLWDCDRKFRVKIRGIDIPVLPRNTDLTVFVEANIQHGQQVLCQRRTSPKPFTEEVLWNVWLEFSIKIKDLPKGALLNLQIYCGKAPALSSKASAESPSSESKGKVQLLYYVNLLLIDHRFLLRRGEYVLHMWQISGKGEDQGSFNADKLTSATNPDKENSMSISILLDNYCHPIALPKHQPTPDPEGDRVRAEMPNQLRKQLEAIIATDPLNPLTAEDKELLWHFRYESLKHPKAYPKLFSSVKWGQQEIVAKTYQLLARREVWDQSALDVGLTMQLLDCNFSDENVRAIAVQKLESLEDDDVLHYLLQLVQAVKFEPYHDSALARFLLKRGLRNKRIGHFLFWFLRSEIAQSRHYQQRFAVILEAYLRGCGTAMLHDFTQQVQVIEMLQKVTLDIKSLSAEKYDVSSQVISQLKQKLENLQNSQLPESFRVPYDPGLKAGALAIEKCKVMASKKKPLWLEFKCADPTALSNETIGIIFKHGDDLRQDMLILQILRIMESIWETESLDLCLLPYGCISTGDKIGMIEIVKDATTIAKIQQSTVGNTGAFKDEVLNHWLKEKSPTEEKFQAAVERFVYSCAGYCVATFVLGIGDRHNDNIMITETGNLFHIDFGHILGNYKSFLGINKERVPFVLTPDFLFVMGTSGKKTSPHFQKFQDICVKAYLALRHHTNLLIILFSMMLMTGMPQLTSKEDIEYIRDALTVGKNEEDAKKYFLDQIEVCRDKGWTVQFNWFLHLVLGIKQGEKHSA
PIK3CD (Human), sequence (O00329 whole entry, looked up): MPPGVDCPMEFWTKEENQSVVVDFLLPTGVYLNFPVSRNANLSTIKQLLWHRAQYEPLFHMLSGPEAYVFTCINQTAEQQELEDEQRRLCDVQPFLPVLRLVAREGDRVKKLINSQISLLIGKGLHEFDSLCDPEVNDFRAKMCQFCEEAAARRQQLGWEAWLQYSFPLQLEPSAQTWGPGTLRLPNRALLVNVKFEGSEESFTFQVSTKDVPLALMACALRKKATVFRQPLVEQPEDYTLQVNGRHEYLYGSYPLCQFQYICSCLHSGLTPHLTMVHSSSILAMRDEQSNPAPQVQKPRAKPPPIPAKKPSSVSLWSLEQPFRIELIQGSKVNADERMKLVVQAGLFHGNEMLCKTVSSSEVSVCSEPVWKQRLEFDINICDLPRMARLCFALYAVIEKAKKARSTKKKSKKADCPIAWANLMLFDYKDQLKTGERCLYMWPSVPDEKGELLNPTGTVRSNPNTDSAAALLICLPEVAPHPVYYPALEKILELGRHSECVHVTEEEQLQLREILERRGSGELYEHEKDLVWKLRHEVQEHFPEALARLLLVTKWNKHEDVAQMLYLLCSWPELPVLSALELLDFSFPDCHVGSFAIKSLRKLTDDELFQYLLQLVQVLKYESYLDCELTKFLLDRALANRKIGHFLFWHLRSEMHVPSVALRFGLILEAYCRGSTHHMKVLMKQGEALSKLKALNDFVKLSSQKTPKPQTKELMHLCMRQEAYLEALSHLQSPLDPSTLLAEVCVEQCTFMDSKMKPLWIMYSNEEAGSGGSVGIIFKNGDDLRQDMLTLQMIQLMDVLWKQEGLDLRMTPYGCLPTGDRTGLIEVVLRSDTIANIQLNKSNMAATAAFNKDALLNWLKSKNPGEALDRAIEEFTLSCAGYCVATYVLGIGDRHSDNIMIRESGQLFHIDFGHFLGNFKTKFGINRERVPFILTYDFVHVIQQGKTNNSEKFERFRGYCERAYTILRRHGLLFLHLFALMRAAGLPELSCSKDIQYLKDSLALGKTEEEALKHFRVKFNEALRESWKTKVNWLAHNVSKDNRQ

In general, IC50 refers to the concentration that gives 50% inhibition. Low values mean greater potency in that assay, high ones weaker potency in that assay. `Nc1cnc(-n2c([C@@H](Nc3nc(N)nc(N)c3Cl)C3CC3)nc3c(Cl)ccc(Cl)c3c2=O)cn1` came in with an IC50 against PIK3CG (human) greater than 10000 nM.

For the compound `C[C@H](Nc1ncnc2[nH]nnc12)c1nc2c(F)cccc2c(=O)n1-c1cnc(N)cn1`, the IC50 at PIK3CB (Human) and on PIK3CG (human) was greater than 10000 nM throughout.

In the case of `C[C@H](Nc1ncnc(N)c1C#N)c1nc2c(F)ccc(Cl)c2c(=O)n1-c1cnc(N)cn1`, the IC50 against PIK3CG (human) is greater than 10000 nM.

The compound `C[C@H](Nc1ncnc2occc12)c1nc2c(F)ccc(Cl)c2c(=O)n1-c1cnc(N)cn1` yielded an IC50 at PIK3CG (human) greater than 10000 nM.

Regarding `C[C@H](Nc1ncnc(N)c1Cl)c1nc2cccc(Cl)c2c(=O)n1-c1cnc(N)cn1`, the results for the IC50 on PIK3CB (Human), against PIK3CD (Human) and at PIK3CG (human) were 360 nM, 54 nM and greater than 10000 nM, respectively.

Regarding `C[C@H](Nc1nc(N)nc(N)c1Cl)c1nc2c(F)cc(F)cc2c(=O)n1-c1cnc(N)cn1`, the values for the half-maximal inhibitory concentration (IC50) against PIK3CB (Human), on PIK3CD (Human) and at PIK3CG (human) were 530 nM, 780 nM and greater than 10000 nM, respectively.

As for `C[C@H](Nc1nc(N)nc(C(F)F)c1C#N)c1nc2c(Cl)cc(F)cc2c(=O)n1-c1cnc(N)cn1`, the IC50 against PIK3CB (Human) was 200 nM; on PIK3CD (Human), 340 nM; against PIK3CG (human), greater than 10000 nM.

As for `C[C@H](Nc1nc(N)nc(N)c1Cl)c1nc2c(Cl)ccc(Cl)c2c(=O)n1-c1cnc(N)cn1`, on PIK3CG (human), the IC50 is greater than 10000 nM.

Take `Nc1cnc(-n2c([C@@H](Nc3ncnc(N)c3Cl)C3CC3)nc3c(Cl)ccc(Cl)c3c2=O)cn1`: the IC50 at PIK3CB (Human) was 1100 nM; on PIK3CD (Human), 26 nM; against PIK3CG (human), greater than 10000 nM.

With `C[C@H](Nc1nc(N)nc(N)c1Cl)c1nc2c(Cl)cc(F)cc2c(=O)n1-c1cnc(N)cn1`, the IC50 on PIK3CB (Human) was 570 nM; at PIK3CD (Human) it was 500 nM; at PIK3CG (human) it was greater than 10000 nM.

At PIK3CG (human), `C[C@H](Nc1nc(N)nc(N)c1Cl)c1nc2c(F)ccc(Cl)c2c(=O)n1-c1cnc(N)cn1` registered an IC50 greater than 10000 nM.

On to `Nc1cnc(-n2c([C@@H](Nc3nc(N)nc(N)c3Cl)C3CC3)nc3cccc(Cl)c3c2=O)cn1`, for which the IC50 on PIK3CG (human) was greater than 10000 nM.

`Nc1cnc(-n2c([C@@H](Nc3ncnc(N)c3Cl)C3CC3)nc3cccc(Cl)c3c2=O)cn1`: the IC50 against PIK3CB (Human) is 720 nM; on PIK3CG (human), greater than 10000 nM.
